3 molecules from paper PMC4715937 (Cancer research, 2016) can be followed below.

Holding throughout (format): cell-based, human
The test system of one test is Ly19 cells. The experiment in a line: MTS assay of Ly19 cells with pro-oxidant and NF-κB inhibitor. The conditions noted are these: 3 days; PS-1145 4 μM, pyocyanin 350 μM, single agents.
A further test relates to TMD8 cells. Briefly: MTS cell proliferation assay, TMD8 cells. The conditions noted are these: antibody alone, 48 hours.
The next test deals with Heme oxygenase-1 (HMOX1). The experiment in a line: HMOX1 quantitative PCR and ELISA in DLBCL cells. The conditions noted are these: Ly19 cells, inhibitor at 4μM, 24 hours.

With `Cn1c2cccc(=O)c-2nc2ccccc21` [pyocyanin], in the test on Ly19 cells, the Ly19 growth result is recorded as “strongly inhibited lymphoma cell growth”.

Consider ADALIMUMAB, for which the “cell growth of TMD8” value with TMD8 cells is listed as “inhibited cell growth”.

On to `O=C(Nc1cc(Cl)cc2c1[nH]c1cnccc12)c1cccnc1` [PS-1145], for which the Ly19 growth result with Ly19 cells is on record as “no effect on Ly19 growth”. Besides, the “HMOX1 induction in the presence of pyocyanin” value with Heme oxygenase-1 (HMOX1) is “reduced HMOX1 induction”.
